How the values were obtained:
Format in all cases: biochemical
[1] = system: 3′-5′ cAMP-PDE activity in bovine spermatozoa; test: 3′-5′ cAMP-PDE assay with family-specific PDE inhibitors in bovine spermatozoa; settings: for Percentage of family specific sensitive PDE activity, 3 h Egg yolk: bovine spermatozoa after 3 h in egg yolk based cryoprotectant at 18° C.; for Percentage of family specific sensitive PDE activity, 3 h Liquid semen: bovine spermatozoa after 3 h in liquid semen extender at 18° C.; for Percentage of family specific sensitive PDE activity, 3 h 4° C.: bovine spermatozoa after 3 h in seminal plasma at 4° C.; for Percentage of family specific sensitive PDE activity, 3 h 18° C.: bovine spermatozoa after 3 h in seminal plasma at 18° C.; for Percentage of family specific sensitive PDE activity, Fresh: bovine spermatozoa rapidly after ejaculation (0 h); for Percentage of total PDE activity sensitive to the inhibitor: cilostamide 10 μM, rolipram 10 μM, papaverine 400 nM (FIG. 12B); for Percentage of sensitive PDE activity, Cryo (B): cryopreserved bovine spermatozoa; for Percentage of sensitive PDE activity, Cryo (B) / Percentage of sensitive PDE activity, Fresh (A): Cil 10 μM, Rol 10 μM, Papa 400 nM; for Percentage of sensitive PDE activity, Fresh (A): freshly ejaculated bovine spermatozoa
Protocol: The semen was obtained from different Holstein bulls. The fresh ejaculated semen was kept in an insulated thermos flask, at 18° C., during transportation to the laboratory and processed within 3 hours after collection. The cryopreserved semen was obtained at the Centre d'Insémination […] du Québec (CIAQ) […]. The cryopreserved straws of semen were prepared according to CIAQ procedures. […] After cutting one end of the straw the semen was collected in a 15 ml falcon while cutting the other end. From this point fresh and cryopreserved semen were processed similarly. Approximately 50 μL of the semen was added to 5 mL of Talp-BSA medium in a 15 mL falcon tube to wash the spermatozoa. After centrifugation (280×g, 10 min, room temperature), the remaining pellet of approximately 100 μL was resuspended in Talp-BSA medium (500 μl for the fresh and 200 μl for two straws) to reach a concentration of 1×10^6 cells/10 μL. The samples were then vortex-agitated for 30 sec and kept on the ice until ready to run the assay. The concentration of sperm cells was measured according to hemacytometer method. The cAMP enzymatic assay (PDE assay) was conducted as previously described ([…]. et al., (2006). […] J. et al., (1979). Adv Cyclic Nucleotide Res 10, 69-92) with minor modifications. […] Measurements were also performed in the presence of PDE inhibitors: […] Cilostamide and Rolipram were purchased from Biomol. […] Each PDE assay was performed in triplicate for each experiment and each experiment was repeated at least three times. As described ([…]. et al., (2009). […] IBMX-sensitive PDE5 and PDE6 and IBMX-insensitive PDE9 activities are absent from these groups because cGMP is the specific substrate and then are not detected in the cAMP-PDE assay. […] J Dairy Sci 92, 3757-3765; […]., et al. (2007). Endocrinology 148, 1858-1867; Siuciak, J. A. et al., (2006). Neuropharmacology 51, 386-396).

[2] = system: 3′-5′ cAMP-PDE activity in human seminal plasma; test: 3′-5′ cAMP-PDE assay with family-specific PDE inhibitors in human seminal plasma; settings: fresh human seminal plasma; Rolipram 10 μM, Papaverine 400 nM (FIG. 19)
Protocol: A certain amount of complete ejaculate was kept to isolate spermatozoa from seminal plasma. This portion was centrifuged at 400×g during 10 minutes at room temperature to gently pull down spermatozoa. Supernatant was transferred and centrifuged again at 6 000×g at 4° C. during 20 minutes to pull down any remaining spermatozoa. Supernatant was then transferred and centrifuged at 6 000×g at 4° C. during 20 minutes to remove any remaining debris. SP samples were kept on ice until used for PDE assay and stored at -80° C. for further characterization. The cAMP enzymatic assay (PDE assay) was conducted as previously described ([…]. et al., (2006). BMC developmental biology 6, 47). […] J. et al., (1979). Adv Cyclic Nucleotide Res 10, 69-92) with minor modifications. […] Measurements were also performed in the presence of PDE inhibitors: […] Cilostamide and Rolipram were purchased from Biomol. […] Each PDE assay was performed in triplicate for each experiment and each experiment was repeated at least three times. As described ([…]. et al., (2009). […] IBMX-sensitive PDE5 and PDE6 and IBMX-insensitive PDE9 activities are absent from these groups because cGMP is the specific substrate and then are not detected in the cAMP-PDE assay. […] J Dairy Sci 92, 3757-3765; […]., et al. (2007). Endocrinology 148, 1858-1867; Siuciak, J. A. et al., (2006). Neuropharmacology 51, 386-396).

[3] = system: 3′-5′ cAMP-PDE activity in bovine testis, caput, cauda and seminal vesicles homogenates; test: 3′-5′ cAMP-PDE assay in bovine testis, caput, cauda and seminal vesicles homogenates; settings: Rol 10 μM, Papa 400 nM (FIG. 3)
Protocol: After thoroughly vortex-agitating for about one minute, samples were centrifuged at 10 000×g for 4 minutes at room temperature. Supernatant fluid was collected and diluted in different volumes of hypotonic buffer depending on the tissue. Testis, caput and cauda homogenates were diluted in 1 mL of hypotonic buffer while seminal vesicle homogenates were diluted in 2 mL of hypotonic buffer. Homogenates were kept on ice until subjected to PDE assay. The cAMP enzymatic assay (PDE assay) was conducted as previously described ([…]. et al., (2006). BMC developmental biology 6, 47). […] J. et al., (1979). Adv Cyclic Nucleotide Res 10, 69-92) with minor modifications. […] Measurements were also performed in the presence of PDE inhibitors: […] Cilostamide and Rolipram were purchased from Biomol. […] Each PDE assay was performed in triplicate for each experiment and each experiment was repeated at least three times. As described ([…]. et al., (2009). […] IBMX-sensitive PDE5 and PDE6 and IBMX-insensitive PDE9 activities are absent from these groups because cGMP is the specific substrate and then are not detected in the cAMP-PDE assay. […] J Dairy Sci 92, 3757-3765; […]., et al. (2007). Endocrinology 148, 1858-1867; Siuciak, J. A. et al., (2006). Neuropharmacology 51, 386-396).

[4] = bovine spermatozoa, 1 μM cAMP, IBMX 1 mM

Structure (SMILES)	Percentage of family specific sensitive PDE activity, 3 h Egg yolk [1] [%]	Percentage of family specific sensitive PDE activity, 3 h Liquid semen [1] [%]	Percentage of family specific sensitive PDE activity, 3 h 4° C. [1] [%]	Percentage of family specific sensitive PDE activity, 3 h 18° C. [1] [%]	Percentage of family specific sensitive PDE activity, Fresh [1] [%]	Percentage of total PDE activity sensitive to the inhibitor [1, 4] [%]	Percentage of sensitive PDE activity, Cryo (B) ([1]; IBMX 1 mM) [%]	Percentage of sensitive PDE activity, Fresh (A) ([1]; IBMX 1 mM) [%]	Percentage of total PDE activity that is IBMX-insensitive (PDE8) [1, 4] [%]	Inhibitor-sensitive PDE activity in human seminal plasma (in words) [2]	Inhibitor-sensitive PDE activity in bovine male reproductive tissues (in words) [3]	Increase of the inhibited proportion of cAMP-PDE activity relative to papaverine ([1]; freshly ejaculated bovine spermatozoa (FIG. 21)) [%]
CN(C(=O)CCCOc1ccc2[nH]c(=O)ccc2c1)C1CCCCC1 [Cilostamide]	24	7	11	20	13	9	5	14	–	–	–	–
CC(C)Cn1c(=O)n(C)c(=O)c2[nH]cnc21 [IBMX, 3-isobutyl-1-methylxanthine]	96	96	96	95	95	92	96	94	8	–	–	–
COc1ccc(C2CNC(=O)C2)cc1OC1CCCC1 (stereo not shown) [Rolipram]	18	11	12	9	11	11	10	12	–	high	highly functional	–
OCCN(CCO)c1nc(N2CCCCC2)c2nc(N(CCO)CCO)nc(N3CCCCC3)c2n1 [dipyridamol, dipyridamole]	–	–	–	–	–	–	–	–	–	–	–	10
